Reference: patent US11197856B2, “Bicyclic compounds and methods for their use in treating autism” (priority 2013, dated 2021)

Legend:
[1] = system: synaptophysin; assay: Synaptophysin immunohistochemical staining of hippocampus; format: in vivo, male Wistar rats; details: for density of synaptophysin staining: 28 days post-treatment
Procedure: Aged rats (male Wistar rats, 18-20 months old) were divided into four groups: two vehicle-treated (groups 1 and 3) and two G-2-AllylP treated (groups 2 and 4) (all groups n=6-8). Cyclic G-2-AllylP was synthesised by the Department of Medicinal Chemistry and dissolved in normal saline before the treatment. On day 1 a single dose of cyclic G-2-AllylP was given centrally (20 ng/animal, i.c.v.) to the animals in groups 2 and 4; saline was administered to groups 1 and 3. The memory tests using Novel Object Recognition Test started either on day 3 (groups 1 and 2) or 24 (groups 3 and 4) after the treatment. On the completion of the NORT, the rats were killed with an overdose of sodium pentobarbital and were perfused transcardially with normal saline followed by 10% formalin. Tissues collected at day 7 in groups 1 and 2, and at day 28 from groups 3 and 4. The brains were kept in the same fixative for a minimum of 2 days before being processed using a standard paraffin embedding procedure. Briefly, small blocks (10×10×3 mm) of tissue were fixed for up to 24 hrs. The blocks were then infiltrated and embedded with paraffin and cut in ribbons and mounted on slides. Slides were then stored until immunostaining was commenced. Synaptogenesis in brain tissue was examined using immunohistochemical staining.
Synaptophysin is a presynaptic vesicle protein. Its quantitative detection is established as a molecular marker of synaptic density.
Conventional deparaffinisation and rehydration techniques were used to allow the water-based buffers and antibodies to penetrate the tissue slices. Antigen retrieval was used only prior to AMPA receptor (GluR1) staining, i.e. the slides were placed in boiling citrate buffer and allowed to cool.
The following antibodies were used: • i) primary rabbit antibody to NMDA NR1 subunit, at 1:200 concentration in buffer, incubated for 48 hrs (Chemicon—AB1516), followed by Sigma fluorescent secondary antibody (alexaFluor 394), at 1:200 dilution, incubated for 24 hours at 40C. • ii) primary antibody to AMPA GluR1 subunit, at 1:30 concentration in buffer, incubated for 48 hrs (Chemicon—AB1504) followed by 3,3′-diaminobenzidine (DAB) at 1:200 dilution, incubated for 24 hours at 40C. • iii) Primary antibody to mSynaptophysin (Sigma—S5768), at 1:200 concentration in buffer, followed by DAB at 1:200 dilution, incubated for 24 hours at 40C. • iv) Primary antibody to rKrox-24 (Santa Cruz—catalogue number SC-189) at 1:200 concentration in the buffer, followed by anti-rabbit secondary antibody at concentration of 1:200 dilution, incubated for 24 hours at 40C. • y) Antibodies were detected using light microscopy.
We subsequently analysed effect of cG-2AllylP on the levels of synaptophysin staining in CA3 and CA1 regions of the hippocampus.

[2] = system: pre-synaptic vesicles in the hippocampus; assay: Pre-synaptic vesicle count by transmission electron microscopy, middle aged rats; format: in vivo, Wistar male rats; details: CA1 and C3 subregions; 3 mg/kg/day x 7 days, s.c.; 21 days
Procedure: Four middle aged Wistar male rats (12 months) were divided into two groups: one vehicle-treated (n=2) and one cG-2-AllylP-treated (n=2). The rats were treated subcutaneously with 3 mg/kg/day of either saline or cG-2-AllylP for 7 days. On day 21 of the experiment the animals were sacrificed and the hippocampal tissue was harvested. Semi-thin sections of the tissue were fixed with OsO4 and embedded in resin. CA1 stratum oriens and CA3 sections were then sliced into ultra-thin, 80 nm slices and stained with uranyl acetate and lead citrate. Approximately 30 synapses per animal were analysed, synapse type classified and vesicle density was measured using AnalySIS®.
Transmission electron microscopy was used to count the total number of vesicles on the slides. The average density was calculated by measuring the total area (using AxioVision software) and using the number of vesicles. We followed the protocol in Yoshida et al. 97, Journal of Neurochemistry to calculate the vesicle density in a 200 nm×200 nm square apposing the post-synaptic density (PSD).

[3] = system: MeCP2-/y mice; assay: Heart rate measurements (tail clip sensor); format: in vivo; details: 8 weeks old
Procedure: Real time cardiac pulse rate is measured using a tail clip sensor (Mouse OX Oximeter-Oakmont, Pa.). Mice are not anesthetized but physically restrained in a fitted open plastic tube. Prior to the recording session the tube is placed overnight in the cages housing the experimental animals to allow habituation. Body temperature is maintained at ˜82-84° F. throughout the recording time. We record 3 trials of 15 minutes for each mouse, mice are 8 weeks old and treated with vehicle or cG-2-AllylP from PIS.
To examine heart rate abnormalities in MeCP2−/y mice and the effect of cG-2-AllylP treatment, we monitor real time cardiac pulse rate in non-anesthetized wild type and MeCP2−/y animals treated with vehicle or cG-2-AllylP.

[4] = system: neurons in the CA3 region of the hippocampus; assay: Neuron soma size in the hippocampus; format: in vivo, mice
Procedure: We also measure the effect of cG-2-AllylP treatment on neuron soma size in the hippocampus. Mice are treated with cG-2-AllylP as described above for locomotor activity.

[5] = system: interleukin 1 beta; assay: PBBI in rats: IL-1beta ELISA; format: in vivo; details: 30 mg/kg oral gavage once daily
Text: The unilateral frontal PBBI model, which mimics the ballistic dynamics of a bullet or fragment wound to the head (Williams, 2003; Williams, 2006), was induced by stereotactic insertion of a custom probe through the right frontal cortex. A temporary cavity was formed by the rapid inflation/deflation (i.e. <40 msec) of an elastic balloon attached to the end of the probe. The PBBI apparatus consisted of a computer-controlled hydraulic pressure generator (Mitre Corp McLean, Va.), a PBBI probe and a stereotaxic frame equipped with a custom-designed probe holder as previously described (Lu, 2009; Williams, 2003). The injury severity was determined by the size of the balloon under control of the computerized hydraulic pressure. The balloon diameter calibrated to 0.63 cm expansion represented 10% of the total rat brain volume thus expressing a 10% PBBI. All surgeries were done under anaesthesia. Groups tested: Sham+vehicle, PBBI+vehicle, PBBI+cG-2-AllylP (30 mg/kg by oral gavage, 30 min post-injury, and again once daily until endpoint). […]
Target proteins were quantified with interleukin 1 beta (“IL-1beta”) (GenWay Biotech GWB-SKR107) and interleukin-6 (“IL-6”) (GenWay Biotech GWB-ZZD100) ELISAs according to manufacturer's instructions. Levels were calculated and normalized to total protein concentration as determined by BCA assay (n=9-10 per group).

Question: How did the “density of synaptophysin staining” value ([1]; CA1 strata oriens and radiatum) turn out when `C=CC[C@]12CCCN1C(=O)CNC2=O` [cG-2-AllylP, (8aS)-Allyl-hexahydropyrrolo[1,2-a]pyrazine-1,4-dione] was run?
Answer: The value was “clear trend towards”.

Question: What about the “density of synaptophysin staining” value ([1]; CA3) of the same molecule?
Answer: The value was “significant increase”.

Question: What about the “density of pre-synaptic stain (FIG. 6)” value ([1]; CA3 region, day 24 post-treatment) of the same molecule?
Answer: The value was “trend to increase the density of pre-synaptic stain”.

Question: What about the “density of pre-synaptic stain (FIG. 7)” value ([1]; stratum oriens of CA1, day 24 post-treatment) of the same molecule?
Answer: Its value is “trend to increase the density of the pre-synaptic stain”.

Question: And the “density of pre-synaptic stain (FIG. 8)” value ([1]; stratum radiatum of CA1, day 24 post-treatment)?
Answer: The value was “increase the density of the pre-synaptic stain”.

Question: What about the “number of pre-synaptic vesicles” value [2] of the same molecule?
Answer: Its value is “increased”.

Question: What about the “occurrence of irregular heart rate with a lower average rate” value [3] of the same molecule?
Answer: Its value is “significantly reduced”.

Question: And the average soma size ([4]; KO animals)?
Answer: The average soma size was “increases average soma size in KO animals”.

Question: What about the soma size ([4]; wild type animals) of the same molecule?
Answer: The soma size was “little or no effect on soma size in wild type animals”.

Question: And the IL1-beta levels ([5]; 3 days after PBBI)?
Answer: The IL1-beta levels was “increased IL1-beta levels at 3 days after PBBI”.

Question: And the IL1-beta levels ([5]; 7 days after PBBI)?
Answer: The IL1-beta levels was “decreased levels of IL1-beta at 7 days after PBBI”.
